Experimental data as given in patent US20240067668A1, “HETEROARYL DERIVATIVE COMPOUND AND USE THEREOF” (VORONOI INC., priority 2020, published 2024).

Assays:
[1] = test system: BaF3-EGFR (Del19/T790M/C797S) cells; experiment: Inhibitory activity on Ba/F3 cell proliferation (CellTiter-Glo, 72 hours); format: cell-based; conditions: Ba/F3 cells expressing EGFR Del19/T790M/C797S
Method in brief: (§1)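 Ba/F3 cells expressing wild-type EGFR or EGFR Del19/T790M/C797S, 3×10^3 per well, exposed 72 h at 37 °C to compound at 12 threefold dilutions, 0.00005-10 μM final. Viability by CellTiter-Glo 2.0; GI50 derived from growth relative to DMSO-treated cells.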

BaF3-EGFR (WT) cells = experiment: as above; format: cell-based; conditions: Ba/F3 cells expressing EGFR WT
Method in brief: as §1

EGFR Del19/T790M/C797S = EGFR Del19/T790M/C797S (Homo sapiens, UniProt P00533, C797S/T790M, form not given); experiment: Enzyme IC50, EGFR Del19/T790M/C797S; format: biochemical
Sequence of EGFR Del19/T790M/C797S (P00533 25-1210 T790M/C797S, form open): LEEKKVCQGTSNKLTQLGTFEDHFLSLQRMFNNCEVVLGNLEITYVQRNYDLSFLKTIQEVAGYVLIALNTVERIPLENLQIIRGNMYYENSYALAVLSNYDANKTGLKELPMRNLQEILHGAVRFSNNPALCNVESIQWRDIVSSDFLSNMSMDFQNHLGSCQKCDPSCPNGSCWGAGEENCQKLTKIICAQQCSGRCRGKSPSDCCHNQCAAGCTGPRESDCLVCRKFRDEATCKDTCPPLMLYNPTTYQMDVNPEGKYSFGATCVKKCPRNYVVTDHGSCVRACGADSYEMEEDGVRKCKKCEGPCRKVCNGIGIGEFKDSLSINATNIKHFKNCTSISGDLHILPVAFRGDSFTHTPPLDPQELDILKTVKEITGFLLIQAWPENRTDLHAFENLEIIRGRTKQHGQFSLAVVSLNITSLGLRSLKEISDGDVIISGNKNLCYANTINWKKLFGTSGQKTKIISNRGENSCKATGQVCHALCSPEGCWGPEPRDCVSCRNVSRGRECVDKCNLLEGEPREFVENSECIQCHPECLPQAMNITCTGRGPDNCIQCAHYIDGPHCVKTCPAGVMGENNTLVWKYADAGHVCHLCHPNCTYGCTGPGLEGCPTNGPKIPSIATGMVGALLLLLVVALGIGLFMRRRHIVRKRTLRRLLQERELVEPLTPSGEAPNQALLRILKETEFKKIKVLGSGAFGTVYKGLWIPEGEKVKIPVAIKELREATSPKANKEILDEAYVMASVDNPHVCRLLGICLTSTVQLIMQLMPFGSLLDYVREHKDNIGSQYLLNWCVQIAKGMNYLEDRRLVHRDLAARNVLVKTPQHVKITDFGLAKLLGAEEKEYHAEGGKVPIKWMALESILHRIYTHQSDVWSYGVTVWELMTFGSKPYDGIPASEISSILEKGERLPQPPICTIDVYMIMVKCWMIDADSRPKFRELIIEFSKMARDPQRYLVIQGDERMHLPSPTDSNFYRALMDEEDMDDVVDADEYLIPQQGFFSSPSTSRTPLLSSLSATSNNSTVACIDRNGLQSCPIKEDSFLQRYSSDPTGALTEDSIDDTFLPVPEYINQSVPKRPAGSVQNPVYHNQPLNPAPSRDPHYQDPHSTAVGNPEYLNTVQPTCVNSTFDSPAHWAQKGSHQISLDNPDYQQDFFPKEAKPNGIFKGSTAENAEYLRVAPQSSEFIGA

Compound	GI50 [1] [µM]	GI50 (BaF3-EGFR (WT) cells) [µM]	IC50 (EGFR Del19/T790M/C797S) [µM]
COc1cc(N2CCC(N3CCN(C4CC4)CC3)CC2)c(C)cc1Nc1nc(Nc2ccc3nccnc3c2P(C)(C)=O)c2cc[nH]c2n1 [Example 60, (6-((2-((4-(4-(4-cyclopropyl-piperazin-1-yl)piperidin-1-yl)-2-methoxy-5-methylphenyl)amino)-7H-pyrrolo[2,3-d]pyrimidin-4-yl)amino)quinoxalin-5-yl)dimethyl-phosphine oxide]	≤ 0.05	> 0.1	≤ 0.05
Cn1cc(-c2cc(Nc3nc(Nc4ccc5nccnc5c4P(C)(C)=O)c4cc[nH]c4n3)c(OCC(F)(F)F)cc2N2CCOCC2)cn1 [Example 2, dimethyl (6-((2-((5-(1-methyl-1H-pyrazol-4-yl)-4-morpholino-2-(2,2,2-trifluoroethoxy)phenyl)amino)-7H-pyrrolo[2,3-d]pyrimidin-4-yl)amino)quinoxalin-5-yl) phosphine oxide]	≤ 0.05	> 0.1	≤ 0.05
COc1cc(N2CCN(C)CC2)c(-c2cnn(C)c2)cc1Nc1nc(Nc2ccc3nccnc3c2P(C)(C)=O)c2cc[nH]c2n1 [Example 21, (6-((2-((2-methoxy-5-(1-methyl-1H-pyrazol-4-yl)-4-(4-methylpiperazin-1-yl)phenyl)amino)-7H-pyrrolo[2,3-d]pyrimidin-4-yl)amino)quinoxalin-5-yl) dimethyl-phosphine oxide]	≤ 0.05	> 0.1	≤ 0.05
Cc1cc(Nc2nc(Nc3cnc4ccccc4c3P(C)(C)=O)c3cc[nH]c3n2)c(OCC(F)(F)F)cc1N1CCC(N2CCN(C)CC2)CC1 [Example 13, dimethyl (3-((2-((5-methyl-4-(4-(4-methylpiperazin-1-yl)piperidin-1-yl)-2-(2,2,2-trifluoroethoxy)phenyl)amino)-7H-pyrrolo[2,3-d]pyrimidin-4-yl)amino)quinolin-4-yl)phosphine oxide]	> 0.1	> 0.1	≤ 0.05
COc1cc(N2CCOCC2)c(-c2cnn(C)c2)cc1Nc1nc(Nc2ccc3nccnc3c2P(C)(C)=O)c2cc[nH]c2n1 [Example 25, (6-((2-((2-methoxy-5-(1-methyl-1H-pyrazol-4-yl)-4-morpholino-phenyl)amino)-7H-pyrrolo[2,3-d]pyrimidin-4-yl)amino)quinoxalin-5-yl)dimethyl-phosphine oxide]	≤ 0.05	> 0.1	≤ 0.05
COc1cc(N2C[C@@H](C)O[C@@H](C)C2)c(-c2cnn(C)c2)cc1Nc1nc(Nc2ccc3nccnc3c2P(C)(C)=O)c2cc[nH]c2n1 [Example 23, (6-((2-((4-((2s, 6R)-2,6-dimethyl-morpholino)-2-methoxy-5-(1-methyl-1H-pyrazol-4-yl)phenyl)amino)-7H-pyrrolo[2,3-d]pyrimidin-4-yl)amino)quinoxalin-5-yl)dimethyl-phosphine oxide]	≤ 0.05	> 0.1	≤ 0.05
Cn1cc(-c2ccc(OCC(F)(F)F)c(Nc3nc(Nc4ccc5nccnc5c4P(C)(C)=O)c4cc[nH]c4n3)c2)cn1 [Example 5, dimethyl (6-((2-((5-(1-methyl-1H-pyrazol-4-yl)-2-(2,2,2-trifluoroethoxy)phenyl)amino)-7H-pyrrolo[2,3-d]pyrimidin-4-yl)amino)quinoxalin-5-yl)phosphine oxide]	> 0.1	0.05 to 0.1	0.05 to 0.1
COc1cc(N2C[C@@H]3C[C@H]2CO3)c(-c2cnn(C)c2)cc1Nc1nc(Nc2ccc3nccnc3c2P(C)(C)=O)c2cc[nH]c2n1 [Example 26, (6-((2-((4-((1s,4S)-2-oxa-5-azabicyclo [2.2.1]heptan-5-yl)-2-methoxy-5-(1-methyl-1H-pyrazol-4-yl)phenyl)amino)-7H-pyrrolo[2,3-d]pyrimidin-4-yl)amino)quinoxalin-5-yl)dimethyl-phosphine oxide]	≤ 0.05	> 0.1	≤ 0.05
